According to the supplement of paper PMC12533247:

Columns and labels:
[1] = tested on: primary dermal fibroblasts; test: % change in live cells vs DMSO control; higher = less cytotoxic; details: time (h post treatment): 48
Description: (§1)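 Cytotoxicity in uninfected 2D primary donor keratinocytes (20 h post treatment) and fibroblasts (48 h post treatment), measured with NucSpot live/dead dyes on IncuCyte. Live cells are normalised to the 0.2% DMSO control and shown as % change. Three biological replicates for each of donors 3, 4 and 5.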

[2] = tested on: primary keratinocytes; test: as above; details: time (h post treatment): 20
Description: as §1

[3] = tested on: HSV-1 K26-GFP infected primary human skin cells; test: % change of HSV-1 GFP signal vs untreated infected cells; higher = less antiviral inhibition
Description: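 2D primary donor-derived keratinocytes (read at 20 hpi) and donor-matched dermal fibroblasts (read at 48 hpi) infected with GFP-HSV-1 K26 at MOI 1 and treated 1 h later with compound dilutions. IncuCyte GFP integrated intensity is normalised by subtracting mock-infected wells and dividing by untreated infected wells, shown as % change (-100 = full inhibition).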

[4] = tested on: HSV-1 K26-GFP infected 3D skin equivalent; test: % change of tdTomato fibroblast signal relative to infected DMSO control; higher = higher signal (negative = inhibition / toxicity); details: time (h post infection): 48
Description: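 Triplicate dose-response (0.04 to 10 uM) of 11 top compounds in 3D bioprinted skin equivalents (submerged and ALI models) infected with GFP-HSV-1 K26 at MOI 0.1 and fixed at 48 hpi. GFP (virus) and tdTomato (fibroblast viability) signals are normalised to per-plate controls.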

O=C(/C=C\n1cnc(-c2cc(C(F)(F)F)cc(C(F)(F)F)c2)n1)NNc1ccccn1 [Verdinexor]
Details | % change in live cells, donor: 3 [%] | % change in live cells, donor: 4 [%] | % change in live cells, donor: 5 [%] | % change of tdTomato fibroblast signal, model: ALI [%] | % change of tdTomato fibroblast signal, model: submerged [%]
[1], 0.082305 µM | -24 | -8.33 | -0.667 | – | –
[1], 0.246914 µM | -20.3 | -9.67 | -6.33 | – | –
[1], 0.740741 µM | -22.3 | -14 | -10.7 | – | –
[1], 2.22222 µM | -23.3 | -9.67 | -15.7 | – | –
[1], 6.66667 µM | -24.7 | -11 | -18.7 | – | –
[1], 20 µM | -27.7 | -13.3 | -23.7 | – | –
[1], 60 µM | -40.3 | -31.3 | -44 | – | –
[2], 0.082305 µM | -11 | -9 | -5.67 | – | –
[2], 0.246914 µM | -23.3 | -17 | -12.7 | – | –
[2], 0.740741 µM | -38.7 | -12 | -16.7 | – | –
[2], 2.22222 µM | -44.3 | -32 | -23.3 | – | –
[2], 6.66667 µM | -60.3 | -42.3 | -31.7 | – | –
[2], 20 µM | -68.3 | -74.7 | -74 | – | –
[2], 60 µM | -75.3 | -86.7 | -82 | – | –
[4], 0.041152 µM | – | – | – | 8.09 | 8.73
[4], 0.123457 µM | – | – | – | -4.16 | -8.13
[4], 0.37037 µM | – | – | – | -13.3 | -4.26
[4], 1.111111 µM | – | – | – | -11.7 | -2.44
[4], 3.33333 µM | – | – | – | -19.1 | -1.43
[4], 10 µM | – | – | – | -6.29 | -5.83

% change of HSV-1 GFP signal [%], [3]
Details | 0.001 µM | 0.003 µM | 0.0091 µM | 0.0274 µM | 0.0823 µM | 0.2469 µM | 0.7407 µM | 2.2222 µM | 6.6667 µM | 20 µM
cell type: primary dermal fibroblasts, donor: 5, time (h post infection): 48 | -15.5 | -14.5 | -9.81 | -15.2 | -14.8 | -16.9 | -28.1 | -45.5 | -46.8 | -46.5
cell type: primary keratinocytes, donor: 3, time (h post infection): 20 | 17.4 | 18.1 | 8.7 | 2.9 | 12.9 | 9.98 | -22.6 | -68.6 | -87.6 | -92
cell type: primary keratinocytes, donor: 4, time (h post infection): 20 | -13.1 | -10.8 | -21.9 | -29.6 | -15.4 | -22.4 | -47.4 | -82.8 | -95.8 | -97.6
cell type: primary keratinocytes, donor: 5, time (h post infection): 20 | 6.47 | 3.84 | 3.12 | 6.11 | 10.5 | 3.84 | 8.2 | -36.4 | -76.6 | -94.9
